# Measurements reported in patent US4931391A, “Method for preservation of nitrile hydration activity” (Mitsubishi Rayon Kabushiki Kaisha, priority 1986, dated 1990).
# Read-outs that look alike come from different tables or passages of the source.
# How the values were obtained:
# [1] = target: T1, (Rhodococcus erythropolis, UniProt P13448+P13449); assay: Preservation of nitrile hydration activity of cell extract prepared as in Comparison Example 1, stabilizer added to extract; assay type: biochemical, Corynebacterium strain N-774(FERM P-4446)
# T1 sequence (P13448 2-207 limits assumed): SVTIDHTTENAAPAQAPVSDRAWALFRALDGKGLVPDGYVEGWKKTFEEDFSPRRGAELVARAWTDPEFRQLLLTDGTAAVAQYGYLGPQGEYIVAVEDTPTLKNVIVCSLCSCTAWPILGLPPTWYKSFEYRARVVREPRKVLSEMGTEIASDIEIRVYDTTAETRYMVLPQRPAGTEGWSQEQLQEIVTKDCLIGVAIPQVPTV
# T1 sequence (P13449 1-212): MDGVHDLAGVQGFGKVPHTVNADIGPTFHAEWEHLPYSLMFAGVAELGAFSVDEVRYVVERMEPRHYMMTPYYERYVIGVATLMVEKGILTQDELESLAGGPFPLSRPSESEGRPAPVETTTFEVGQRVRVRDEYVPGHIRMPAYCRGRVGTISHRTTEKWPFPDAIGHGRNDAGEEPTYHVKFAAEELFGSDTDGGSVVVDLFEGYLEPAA
# immobilized nitrilase = immobilized nitrilase (Rhodococcus erythropolis, UniProt P13448+P13449); assay: Preservation of nitrile hydration activity of immobilized enzyme (polyacrylamide gel); assay type: biochemical, Corynebacterium strain N-774(FERM P-4446); details: 0° C., 20 minutes
# Procedure: 40 ml of a cell extract prepared as in Example 1, 4.5 g of acrylamide, 0.5 g of N,N'-methylenebisacrylamide, and 40 ml of M/20 phosphate buffer (containing 10 g/l of ammonium isobutyrate, pH 6.0) were mixed to form a homogeneous suspension. To this suspension were added 5 ml of a 5% aqueous solution of dimethylaminopropionitrile and 10 ml of a 1.0% aqueous solution of potassium persulfate, and the mixture was maintained at 10° C. for 30 minutes to cause polymerization. A mass of cell-containing gel obtained was crushed into small particles, which were thoroughly washed with M/20 phosphate buffer containing 5 g/l of ammonium isobutyrate, pH 7.0, whereby approximately 90 g of an immobilized enzyme was obtained.
# The washed, immobilized enzyme thus obtained was placed in the same buffer containing 5 g/l of isobutyric acid and left standing at 20° C. for 3 days.
# The nitrile hydration activity levels of the gel samples were measured as follows before and after the respective immobilized enzymes were left standing.
# 1 g of immobilized gel was mixed with 5 g of acrylonitrile and 97 ml of M/20 phosphate buffer (pH 7.7), and the mixture was subjected to reaction at 0° C. for 20 minutes with stirring. The quantities of acrylamide in the respective reaction solutions were determined by gas chromatography.
# [2] = 48 h; 10 mg amide in 2.5 ml buffer + 2.5 ml extract; pH 6.5; 20° C. for 2 days; read-out: % Residual Activity (Amide Added)
# [3] = 48 h; 10 mg organic acid in 2.5 ml buffer + 2.5 ml extract; pH 6.5; 20° C. for 2 days; read-out: % Residual Activity (Organic Acid Added)
# [4] = 48 h, pH 6.5, read-out: % Residual Activity (Organic Acid Added)
# [5] = 48 h, pH 6.5; read-out: % Residual Activity (Nitrile Added)
# [6] = 48 h, pH 6, read-out: % Residual Activity
# [7] = 48 h; 10 mg nitrile in 2.5 ml buffer + 2.5 ml extract (0.8×10^3 U/ml); pH 6.5; 20° C. for 2 days; read-out: % Residual Activity (Nitrile Added)
# [8] = 48 h, pH 6.5; read-out: % Residual Activity (Organic Acid Added)
# [9] = 48 h, pH 6.5; read-out: % Residual Activity (Amide Added)
# [10] = pH 6, read-out: % Residual Activity
# [11] = stabilizer concentration 1.0 g/l; pH 6.0; […]; 20° C. for 2 days; read-out: % Residual Activity
# [12] = stabilizer concentration 20 g/l; pH 6.0; […]; 20° C. for 2 days; read-out: % Residual Activity
# [13] = 48 h, pH 7, read-out: % Residual Activity
# [14] = stabilizer concentration 0.01 g/l; pH 6.0; extract 0.7×10^3 U/ml; 20° C. for 2 days; read-out: % Residual Activity
# [15] = stabilizer concentration 5.0 g/l; pH 6.0; extract 0.7×10^3 U/ml; 20° C. for 2 days; read-out: % Residual Activity
# [16] = stabilizer concentration 50 g/l; pH 6.0; extract 0.7×10^3 U/ml; 20° C. for 2 days; read-out: % Residual Activity
structure (smiles),measurement,setting,value
CC(N)=O [Acetamide],activity at 2000 µg/mL,[1]; [2],57%
O=C(O)CC(O)C(=O)O (stereo not shown) [Malic acid],activity at 2000 µg/mL,[1]; [3],43%
O=CO [Formic acid],activity at 2000 µg/mL,[1]; [4],48%
CCC(=O)O [Propionic acid],activity at 2000 µg/mL,[1]; [4],78%
N#CCCCl [β-Chloropropionitrile],activity at 2000 µg/mL,[1]; [5],63%
N#CCN [Glycine nitrile],activity at 2000 µg/mL,[1]; [5],58%
N#CCC#N [Malononitrile],activity at 2000 µg/mL,[1]; 48 h; pH 6.5; 20° C. for 2 days; read-out: % Residual Activity (Nitrile Added),55%
CC(C)C(N)=O [Isobutyramide],activity at 25 mg,[1]; [6],80%
same,activity at 25 mg,"[1]; 48 h, pH 7; read-out: % Residual Activity",74%
same,activity at 2000 µg/mL,[1]; [2],85%
same,activity at 25 mg,[1]; 48 h; pH 5.0; 25 mg stabilizer in 2.5 ml buffer + 2.5 ml extract (1×10^3 U/ml); 20° C. for 2 days; read-out: % Residual Activity,4%
same,activity at 25 mg,[1]; 48 h; pH 8.0; 25 mg stabilizer in 2.5 ml buffer + 2.5 ml extract (1×10^3 U/ml); 20° C. for 2 days; read-out: % Residual Activity,48%
CC#N [Acetonitrile],activity at 2000 µg/mL,"[1]; 48 h, pH 6.5, read-out: % Residual Activity (Nitrile Added)",61%
NC(=O)CCC(N)=O [Succindiamide],activity at 2000 µg/mL,[1]; [2],63%
C=C(C)C(N)=O [Methacrylamide],activity at 2000 µg/mL,[1]; [2],70%
N#CCCCCC#N [Adiponitrile],activity at 2000 µg/mL,[1]; [5],68%
N#CCC(=O)O [Cyanoacetic acid],activity at 2000 µg/mL,[1]; [7],54%
C=C(C)C#N [Methacrylonitrile],activity at 2000 µg/mL,[1]; [5],62%
O=C(O)CCl [Monochloroacetic acid],activity at 2000 µg/mL,[1]; [8],39%
N#CCCN [β-Aminopropionitrile],activity at 2000 µg/mL,[1]; [5],55%
CC(=O)O [Acetic acid],activity at 2000 µg/mL,[1]; [4],55%
NC(=O)CCCl [β-Chloropropionamide],activity at 2000 µg/mL,[1]; [2],68%
N#CCCC#N [Succinonitrile],activity at 2000 µg/mL,[1]; [5],70%
C=CC#N [Acrylonitrile],activity at 2000 µg/mL,[1]; [5],56%
NC(=O)c1cccnc1 [Nicotinamide],activity at 2000 µg/mL,[1]; [9],39%
CCCCC(N)=O [n-Valeramide],activity at 2000 µg/mL,[1]; [2],78%
CCC#N [Propionitrile],activity at 2000 µg/mL,[1]; [5],83%
O=C(O)CCC(=O)O [Succinic acid],activity at 2000 µg/mL,[1]; [4],59%
C=CC(=O)O [Acrylic acid],activity at 2000 µg/mL,[1]; [8],53%
CCCC#N [n-Butyronitrile],activity at 2000 µg/mL,[1]; [5],93%
same,remaining activity at 100 µg/mL,[1]; [10],82%
same,remaining activity at 10 µg/mL,[1]; stabilizer concentration 0.01 g/l; pH 6.0; […]; 20° C. for 2 days; read-out: % Residual Activity,60%
same,remaining activity at 1000 µg/mL,[1]; [11],88%
same,remaining activity at 5000 µg/mL,[1]; stabilizer concentration 5.0 g/l; pH 6.0; […]; 20° C. for 2 days; read-out: % Residual Activity,86%
same,remaining activity at 20000 µg/mL,[1]; [12],70%
N#Cc1ccccc1 [Benzonitrile],activity at 2000 µg/mL,[1]; [7],44%
CC(O)C(N)=O (stereo not shown) [Lactamide],activity at 2000 µg/mL,[1]; [2],50%
C=C(C)C(=O)O [Methacrylic acid],activity at 2000 µg/mL,[1]; [8],59%
CCCCCC#N [n-Capronitrile],activity at 2000 µg/mL,[1]; [5],71%
NC(=O)CC(N)=O [Malondiamide],activity at 2000 µg/mL,[1]; [2],48%
O=C(O)CC(=O)C(=O)O [Oxalacetic acid],activity at 2000 µg/mL,[1]; [3],68%
O=CC(=O)O [Glyoxylic acid],activity at 2000 µg/mL,[1]; [3],72%
NC(=O)CCO [β-Hydroxypropionamide],activity at 2000 µg/mL,[1]; [2],61%
O=C(O)CO [Glycolic acid],activity at 2000 µg/mL,[1]; [3],52%
O=C(O)c1ccccc1 [Benzoic acid],activity at 2000 µg/mL,[1]; [8],48%
CC(C)C#N [Isobutyronitrile],activity at 25 mg,"[1]; 48 h, pH 5; read-out: % Residual Activity",3%
same,activity at 25 mg,[1]; [6],82%
same,activity at 2000 µg/mL,[1]; [5],88%
same,activity at 25 mg,[1]; [13],77%
same,activity at 25 mg,"[1]; 48 h, pH 8; read-out: % Residual Activity",45%
C=CC(N)=O [Acrylamide],activity at 2000 µg/mL,[1]; [9],63%
CCCCC(=O)O [Valeric acid],activity at 2000 µg/mL,[1]; [3],81%
CC(C)C(=O)O [Isobutyric acid],activity at 25 mg,"[1]; 48 h, pH 5, read-out: % Residual Activity",2%
same,activity at 25 mg,"[1]; 48 h, pH 5.5, read-out: % Residual Activity",82%
same,activity at 25 mg,[1]; [6],83%
same,activity at 2000 µg/mL,[1]; [4],83%
same,activity at 25 mg,[1]; [13],77%
same,activity at 25 mg,"[1]; 48 h, pH 8, read-out: % Residual Activity",42%
same,Quant. of AA produced (%) after enzyme was left standing,"immobilized nitrilase; after standing at 20° C. for 3 days in buffer containing 5 g/l of isobutyric acid, 1 g gel",0.60%
same,Quant. of AA produced (%) before enzyme was left standing,"immobilized nitrilase; immobilized gel, 1 g with 5 g acrylonitrile, immobilized and washed with stabilizer",0.71%
O=C(O)C(O)CO (racemic) [DL-Glyceric acid],activity at 2000 µg/mL,[1]; [3],60%
N#CCC(N)=O [Cyanoacetamide],activity at 2000 µg/mL,[1]; [5],53%
CCCCCC(=O)O [Caproic acid],activity at 2000 µg/mL,[1]; [8],78%
CCCCC#N [n-Valeronitrile],activity at 2000 µg/mL,[1]; [5],82%
NC(=O)c1ccccc1 [Benzamide],activity at 2000 µg/mL,[1]; [2],47%
N#Cc1cccnc1 [Nicotinonitrile],activity at 2000 µg/mL,[1]; [5],43%
N#CCCO [β-Hydroxypropionitrile],activity at 2000 µg/mL,[1]; [5],78%
NCCC(N)=O [β-Aminopropionamide],activity at 2000 µg/mL,[1]; [2],52%
CCCC(=O)O [Butyric acid],remaining activity at 100 µg/mL,[1]; [10],87%
same,remaining activity at 10 µg/mL,[1]; [14],63%
same,remaining activity at 1000 µg/mL,[1]; stabilizer concentration 1.0 g/l; pH 6.0; extract 0.7×10^3 U/ml; 20° C. for 2 days; read-out: % Residual Activity,92%
same,remaining activity at 5000 µg/mL,[1]; [15],90%
same,remaining activity at 20000 µg/mL,[1]; [12],85%
same,remaining activity at 50000 µg/mL,[1]; [16],67%
CC(O)C#N (stereo not shown) [Lactonitrile],activity at 2000 µg/mL,[1]; [5],49%
CCCC(N)=O [n-Butyramide],activity at 2000 µg/mL,[1]; [2],90%
same,remaining activity at 20000 µg/mL,[1]; [10],78%
same,remaining activity at 10 µg/mL,[1]; [14],60%
same,remaining activity at 100 µg/mL,[1]; stabilizer concentration 0.1 g/l; pH 6.0; […]; 20° C. for 2 days; read-out: % Residual Activity,85%
same,remaining activity at 1000 µg/mL,[1]; [11],85%
same,remaining activity at 5000 µg/mL,[1]; [15],89%
same,remaining activity at 50000 µg/mL,[1]; [16],63%
CCC(N)=O [Propionamide],activity at 2000 µg/mL,[1]; [2],83%
N#CCCl [Chloroacetonitrile],activity at 2000 µg/mL,[1]; [5],58%
CCCCCC(N)=O [n-Capronamide],activity at 2000 µg/mL,[1]; [2],75%
NC(=O)CCl [Chloroacetamide],activity at 2000 µg/mL,"[1]; 48 h, pH 6.5, read-out: % Residual Activity (Amide Added)",60%
NCCC(=O)O [β-Aminopropionic acid],activity at 2000 µg/mL,[1]; [4],45%
NCC(N)=O [Glycine amide],activity at 2000 µg/mL,[1]; [2],49%
